{"source": "patent US11471504B2", "about": "“Combination therapy for the treatment of cancer” (Yeda Research and Development Co. Ltd., priority 2017, dated 2022)", "key": {"melanoma cell lines": {"test_system": "melanoma cell lines", "experiment": "Cell viability assay (CellTiter-Glo), panel of melanoma cell lines", "format": "cell-based, human", "details": "36 melanoma cell lines, peptide 10 μM, 72 h"}, "[1]": {"test_system": "83T NRAS mutant melanoma cells", "experiment": "Cell viability assay (CellTiter-Glo), 83T", "format": "cell-based, human", "details": "10 μM, 72 h", "procedure": "(§1) (B) Effect of BRAF inhibitor vemurafenib on selected melanomas. […] All melanoma cells selected were resistant to BRAF inhibition.\n(§2) Dots represent triplicates for every concentration point. […] Viable cells were quantified using CellTiter-Glo reagent. […] Quantified levels are given under the blots. ImageJ was used for the quantification.\n(§3) All cell lines have tested negative for mycoplasma.\n(§4) IC50 values were determined using GraphPad Prism."}, "[2]": {"test_system": "120T NRAS mutant melanoma cells", "experiment": "Cell viability assay (CellTiter-Glo), 120T", "format": "cell-based, human", "details": "10 μM, 72 h"}, "[3]": {"test_system": "110T NRAS mutant melanoma cells", "experiment": "Cell viability assay (CellTiter-Glo), 110T", "format": "cell-based, human", "details": "10 μM, 72 h", "procedure": "as §1, §2, §3, §4"}, "[4]": {"test_system": "39T NF1 mutant melanoma cells", "experiment": "Cell viability assay (CellTiter-Glo), 39T", "format": "cell-based, human", "details": "10 μM, 72 h"}, "[5]": {"test_system": "nuclear translocation of ERK1/2", "experiment": "ERK1/2 nuclear translocation, fluorescence microscopy, EPE-sensitive NRAS melanomas (63T, 83T, 120T, 60T)", "format": "cell-based, human", "details": "EPE-sensitive cells; serum starved, peptide 10 μM 2 h, TPA 100 nM 15 min", "procedure": "(§5) FIGS. 2A-B: The EPE peptide blocks the nuclear translocation in “sensitive” NRAS melanomas. The same seven cell lines selected previously, were serum starved (14 h), pre-treated with EPE or Scr peptide […], and stimulated with TPA (100 nM, 15 min) or left untreated (NS). Cells were then fixed and stained with αERK2 Abs and DAPI. […] (B) The effect of EPE peptide on the nuclear translocation of ERK1/2 is modest in resistant cells compared to (A). Bars represent average percentage of cells with mostly nuclear (N, red), nuclear and cytosolic (NC, black) or mostly cytosolic (C, white) staining. Error bars represent standard error of 2 or 3 independent experiments. Quantification was done by counting at least three fields with >150 cells.\n(§6) Fluorescence microscopy: Cells were seeded on coverslips coated with 0.001% w/v poly-L-Lysine (PLL) at 60% confluency. After treatments, cells were fixed in 4% paraformaldehyde/PBS^−/− for 20 min on ice surface, permeabilized with 0.1% Triton X-100/PBS^−/− for 5 min at 23° C., then blocked in 2% BSA/PBS^−/− for 30 min at 23° C. […] Slides were analyzed and photographed by a fluorescence microscope (Olympus BX51, x40). […]"}, "[6]": {"test_system": "nuclear translocation of ERK1/2", "experiment": "ERK1/2 nuclear translocation, fluorescence microscopy, EPE-resistant melanomas (110T, 39T, 103T)", "format": "cell-based, human", "details": "EPE-resistant cells; serum starved, peptide 10 μM 2 h, TPA 100 nM 15 min", "procedure": "as §5, §6"}, "ERK1/2 signaling [7]": {"test_system": "ERK1/2 signaling", "experiment": "Western blot of ERK1/2 signaling, EPE-sensitive NRAS melanomas (60T, 83T)", "format": "cell-based, human", "details": "EPE-sensitive cells, 10 μM 2 h", "procedure": "(§7) FIGS. 3A-B: The EPE peptide reduces phosphorylation of nuclear targets in NRAS mutant melanomas. Two NRAS melanomas sensitive to EPE peptide (60T an 83T), and two EPE-resistant melanomas (39T and 103T), were serum starved (16 h), pretreated with EPE or Scr peptides (10 μM, 2 h), and stimulated with TPA (100 nM, 15 min) (+) or left untreated (−). […] (A) (Left) In the EPE-sensitive cells, the peptide reduced the phosphorylation of nuclear targets Elk1 and c-Myc in stimulated and basal state, while not affecting cytosolic target RSK. […] (B) Quantification of bands in (A). Bars represent average band density ratio of EPE stimulated samples (EPE+) compared to Scr stimulated samples (Scr+), ±S.E. of 2 or 3 independent experiments. Bands were quantified using ImagJ.\n(§8) Quantification of blots was done using ImageJ."}, "ERK1/2 signaling [8]": {"test_system": "ERK1/2 signaling", "experiment": "Western blot of ERK1/2 signaling, EPE-resistant melanomas (39T, 103T)", "format": "cell-based, human", "details": "EPE-resistant cells, 10 μM 2 h", "procedure": "as §7, §8"}, "[9]": {"test_system": "63T NRAS mutant melanoma cells", "details": "10 µM", "method": "(§9) (A) Effect of the EPE peptide on proliferation of metastatic melanoma cells. Thirty-six melanoma cell lines derived from metastatic tumor resections were treated with either EPE or scrambled (Scr) peptides (10 μM). […] Cell viability was measured by CellTiter-Glo reagent after 72 h of treatment. Bars represent percentage of growth respect to Scr peptide control ±S.E. of 3 independent experiments.\n(§10) Pathology-confirmed melanoma cell lines were derived from mechanically or enzymatically dispersed tumor cells, which were then cultured in RPMI-1640 supplemented with 10% FBS at 37° C. in 5% CO2 for 5-15 passages. All cell lines have tested negative for mycoplasma.\n(§11) Cell viability assay: Cells were seeded at a density of 4000 cells per well into 96-well plates in complete medium. After 24 h, medium was replaced by 1% FCS containing appropriate treatments. Fresh medium containing the same agents was replaced every day. After 96 h, cell proliferation was assessed using the CellTiter-Glo reagent (Promega). IC50 values were determined using GraphPad Prism."}, "[10]": {"test_system": "60T NRAS mutant melanoma cells", "details": "10 µM", "method": "as §9, §10, §11"}, "[11]": {"test_system": "cancer cell types, BRAF melanomas", "details": "cited from earlier work"}, "[12]": {"test_system": "interaction of Importin7 with ERK1/2", "details": "cited from earlier work"}, "[13]": {"test_system": "BRAF and MEK inhibitor-resistant models", "details": "cited from earlier work"}}, "note": "Entries after “also recorded” stand apart in the source; their conditions may differ. Residues, ends and D or L forms follow the SMILES beside them. *: point of attachment. Myristoyl = CCCCCCCCCCCCCC(=O)*"}
{"smiles": "CCCCCCCCCCCCCC(=O)NCC(=O)N[C@@H](CCC(N)=O)C(=O)N[C@@H](CC(C)C)C(=O)N[C@@H](CC(N)=O)C(=O)N[C@@H](Cc1c[nH]cn1)C(=O)N[C@H](C(=O)N[C@@H](CC(C)C)C(=O)NCC(=O)N[C@H](C(=O)N[C@@H](CC(C)C)C(=O)NCC(=O)N[C@@H](CCC(=O)O)C(=O)N1CCC[C@H]1C(=O)N[C@@H](CCC(=O)O)C(=O)N[C@@H](CCC(N)=O)C(=O)N[C@@H](CCC(=O)O)C(=O)N[C@@H](CC(=O)O)C(=O)N[C@@H](CC(C)C)C(N)=O)[C@@H](C)CC)[C@@H](C)CC", "note": "[EPE peptide] (Myristoyl-GQLNHILGILGEPEQEDL-NH2)", "values": [{"measurement": "sensitivity of metastatic melanoma cell lines to the EPE peptide (viability vs Scr peptide)", "setting": "melanoma cell lines", "result": "A subset of BRAF, NRAS and NF1 mutant melanomas were sensitive"}, {"measurement": "sensitivity to the EPE peptide (percentage of viability compared to Scr peptide control)", "setting": "[1]", "result": "sensitive"}, {"measurement": "sensitivity to the EPE peptide (percentage of viability compared to Scr peptide control)", "setting": "[2]", "result": "sensitive"}, {"measurement": "sensitivity to the EPE peptide (percentage of viability compared to Scr peptide control)", "setting": "[3]", "result": "resistant (resistant (above 80%))"}, {"measurement": "sensitivity to the EPE peptide (percentage of viability compared to Scr peptide control)", "setting": "[4]", "result": "resistant (resistant (above 80%))"}, {"measurement": "effect on stimulated nuclear translocation of ERK1/2", "setting": "[5]", "result": "disrupted; also recorded: significantly reduces"}, {"measurement": "effect on stimulated nuclear translocation of ERK1/2", "setting": "[6]", "result": "disrupted; also recorded: modest"}, {"measurement": "activity of ERK1/2 (phosphorylation of activatory TEY motif and substrate RSK)", "setting": "ERK1/2 signaling [7]", "result": "did not inhibit"}, {"measurement": "phosphorylation of cytosolic target RSK", "setting": "ERK1/2 signaling [7]", "result": "not affecting"}, {"measurement": "phosphorylation of nuclear target Elk1", "setting": "ERK1/2 signaling [7]; basal and TPA-stimulated", "result": "reduced"}, {"measurement": "phosphorylation of nuclear target c-Myc", "setting": "ERK1/2 signaling [7]; basal and TPA-stimulated", "result": "reduced"}, {"measurement": "activity of ERK1/2 (phosphorylation of activatory TEY motif and substrate RSK)", "setting": "ERK1/2 signaling [8]", "result": "did not inhibit"}, {"measurement": "phosphorylation levels of c-Myc", "setting": "ERK1/2 signaling [8]", "result": "slightly increased"}, {"measurement": "phosphorylation of Elk1", "setting": "ERK1/2 signaling [8]", "result": "no effect"}, {"measurement": "phosphorylation of RSK", "setting": "ERK1/2 signaling [8]", "result": "no effect"}, {"measurement": "sensitivity to the EPE peptide (percentage of viability compared to Scr peptide control)", "setting": "[9]", "result": "sensitive"}, {"measurement": "sensitivity to the EPE peptide (percentage of viability compared to Scr peptide control)", "setting": "[10]", "result": "sensitive"}, {"measurement": "apoptosis", "setting": "[11]; BRAF melanomas", "result": "induces apoptosis"}, {"measurement": "proliferation of cancer cell types", "setting": "[11]; several cancer cell types", "result": "inhibit the proliferation"}, {"measurement": "interaction of Importin7 with ERK1/2 and nuclear translocation of ERK1/2", "setting": "[12]", "result": "inhibited"}]}
{"smiles": "O=C(Nc1ccc2[nH]nc(-c3ccncc3)c2c1)[C@@H]1CCN(CC(=O)N2CCN(c3ccc(-c4ncccn4)cc3)CC2)C1", "note": "[SCH772984]", "values": [{"measurement": "tumor growth", "setting": "[13]", "result": "showed benefits in reducing tumor growth"}]}
